In publication PMC8190080, “Tanshinones induce tumor cell apoptosis via directly targeting FHIT” (Scientific Reports, 2021):

How the values were obtained:
FHIT [1] = target: T1, FHIT (Homo sapiens, UniProt P49789); assay: MST assay of the binding between tanshinone compounds and FHIT; conditions: Fig. 4B, FHIT preparation not stated
T1 construct: GST (N, cleaved yes); made in house; host or cells: E. coli BL21 (DE3)
Protocol: Ten million 293 cells overexpressing GFP-tagged FHIT or free GFP were lysed in 0.5 mL M-PER mammalian protein extraction reagent (Thermo Fisher Scientific). Cell lysates were diluted in PBS buffer to a final concentration at which the fluorescent signals of the GFP proteins were suitable for the detection of the Monolith NT.115 instrument (NanoTemper Technologies). A single point screening assay was developed against GFP-FHIT protein to find potential binding molecules from compound libraries (L1021,APExBIO). For binding affinity detection, a 10µL protein sample was mixed with 10µL ligand at various concentrations as indicated. And the purified proteins were labeled by Red- NHS kit in accordance with the manufacturer’s protocol (MO-L011, NanoTemper Technologies). Then the mixture solutions were loaded into NT.115 standard coated capillaries or premium coated capillaries (NanoTemper Technologies), and the MST measurements were performed at 25 °C. The fluorescence signal during the thermophoresis was monitored and the change in fluorescence was analyzed by software. The Kd was calculated by fitting a standard binding curve to the series diluted ligands. And data were analyzed by GraphPad Prism 7.0.

FHIT [2] = target: T1, FHIT; assay: Fluorescent thin layer enzyme assay with ApppBODIPY (FHIT); assay type: biochemical; conditions: 10 nM Fhit, 5 µM ApppBODIPY, TLC; read-out: IC50, FHIT hydrolase activity (TLC assay)
Protocol: Fluorescent substrates ApppBODIPY at 5 µM were incubated with purified Fhit protein 10 nM in reactions at 25 °C containing 20 mM Tris–HCl, pH7.5, 150 mM NaCl, and 5 mM MgCl2. Competitive compounds, when indicated at series concentrations, were mixed with a fluorescent substrate. Reaction samples (0.6µL) were spotted on silica TLC plates (MERCK) at 60–120 s intervals. Plates were air-dried and developed in 2-propanol:NH4OH:1,4-dioxane: H2O (50:35:8:7) as reported before. Developed plates were imaged by fluorescein blot (ChemiDoc, Bio-Rad).

WT HCT116 cells = assay: Apoptosis detection by flow cytometry (Annexin V/PI), WT HCT116 cells; assay type: cell-based, human
Protocol: (§1) HCT116 cells treated with indicated compounds were digested with 0.25% trypsin (Gibco). The cells were harvested by centrifugation at 1000 rpm for 5 min. The trypsinization time should not be too long to prevent false positives. The cells were washed twice with pre-cooled PBS. The cells were resuspended with 1 × annexin-binding buffer and the cell density was adjusted to ~ 1 × 10^6 cells/ml. Then 5µL Alexa Fluor 488 annexin V and 1 µL 100 µg/mL PI working solution (V13241, Invitrogen) was added to each 100 µL cell suspension. The cells were incubated at room temperature in the dark for 15 min. After the incubation, 400 µL 1 × annexin-binding buffer was added to the cells, mixed gently, and kept the samples on ice. Analyze the stained cells by flow cytometry as soon as possible. The V-FITC positive and PI negative cells were recorded as apoptotic cells.

FHIT KO HCT116 cells = assay: Apoptosis detection by flow cytometry (Annexin V/PI), FHIT KO HCT116 cells; assay type: cell-based, human; conditions: for apoptosis: KO cells
Description: FHIT gene was deleted in HCT116 cells by CRISPR/Cas9 genome editing. A plasmid pL- CRISPR.EFS.GFP (#57,818, Addgene) encoding both the Cas9 protein and the sgRNA was used. The Cas9 sequence is coupled to a P2A site and EGFP. Expression of the Cas9 protein results in simultaneous expression of EGFP, allowing for the selection of positively transfected cells. Two sgRNA toward exon5 and exon6 of the FHIT gene, respectively, were designed by using the optimized CRISPR design online tool (http://crispr.cos.uni-heidelberg.de). The primers sequences of the sgRNA used were shown as below: sgRNA1 for exon5 forward, 5’[…]3’, reverse, 5’[…] GGACAC3’; sgRNA2 for exon6 forward, 5’[…]3’, reverse, 5’[…]3’. Plasmids containing the right insertion were then sequenced by Sangon Biotech Company (Shanghai, China). The two CRISPR/Cas9 plasmids were co-transfected into HCT116 cells as 1:1 using Lipofectamine3000 (Invitrogen). After 48 h, EGFP positive single cell was sorted into 96-well plates and the plates were left in the incubator for 7–14 days or until small colonies could be seen by the naked eye. Genomic DNA of each well was extracted by QuickExtract DNA Extraction Solution (Epicenter, Madison, WI) to do PCR identification. And the PCR products were then Sanger-sequenced to identify clones that would result in frameshifts and truncated protein products. Sequence alignment and genomic PCR primers were shown as below: forward, 5′[…]3′, revers, 5′[…]3′.
as §1, with “The cells were incubated at room temperature in the dark for 15 min. After the incubation, 400 µL 1 × annexin-binding buffer was added to the cells, mixed gently, and kept the samples on ice. Analyze the stained cells by flow cytometry as soon as possible.” left out

HCT116 cells [3] = assay: CCK-8 assay for cell inhibitory rate; assay type: cell-based, human; conditions: WT HCT116 cells, 2 µM
Protocol: The CCK-8 (Cell-Counting Kit-8) assay was used to detect the cells’inhibitory rate following the manufacturer’s protocol (APExBIO). Cells were seeded into 96-well plates at the density of 4 × 10^3(cells/well) overnight at 37 °C. After that, the culture medium was removed and the cells were treated with different concentrations of TSA (0, 1, 2, 5, 10 µM) or STS (0, 10, 25, 50, 100 µM) for 24 h, 48 h, 72 h respectively. Then 10 μL CCK-8 reagent was added into each well and incubated for another 2 h, OD450 was measured by a microplate reader (spark, TECAN).

HCT116 cells [4] = assay: Colony formation assay; assay type: cell-based, human; conditions: 1 µM, 14 days
Protocol: ENPP1 hydrolase activity detection assay
ENPP1 protein (4ng/µl) was mixed with series diluted compounds as indicated in assay buffer (50mM Tris-HCl, 2mM CaCl2, 2mM MgCl2, pH9.0) in a final DMSO concentration of 1% in a total volume of 20μL. The mixtures were incubated for 30min at 25°C, then 4µM Ap3A was added. After incubation at 25°C for 10min, ENPP1 should be inactivated at 85°C for 5min.
Then the production of ADP in the reaction system was detected by ADP-Glo reagent (V6930, Promega) according to the manufacturer’s protocol in 384-well. Luminescence was read by spark (TECAN), an integration time of 1 second per well. And the data were analyzed by […]
Fluorescent thin layer enzyme assay for ENPP1
Small molecules, when indicated at series concentrations, were mixed with 2.5µM the fluorescent substrate ApppBODIPY. Then, 10nM purified ENPP1 protein was added to the reaction system at 25°C containing 50mM Tris-HCl pH9.0, 2mM CaCl2, 2mM MgCl2. Reaction samples (0.6µL) were spotted on silica TLC plates (Merck) at 60–120s intervals. Plates were air-dried and developed in 2-propanol:NH4OH:1,4-dioxane: H2O (50:35:8:7) as reported before. Developed plates were imaged by fluorescein blot (ChemiDoc, Bio-rad).
Colony formation assay was performed as described before. Briefly, ~200/well single cells were planted into 6-well plate. […]

FHIT [5] = target: T1, FHIT; assay: FHIT hydrolase activity detection assay (Ap3A, ADP-Glo); assay type: biochemical; conditions: 5 nM FHIT, 500 nM Ap3A, ADP production by ADP-Glo
Protocol: 5 nM FHIT protein was mixed with series diluted compounds as indicated in assay buffer (20 mM Tris–HCl, 2 mM DTT, 5 mM MgCl2, pH7.5) in a final DMSO concentration of 1% in a total volume of 20 μL. The mixtures were incubated for 30 min at 25 °C, then 500 nM Ap3A was added. After incubation at 25 °C for 5 min, the production of ADP in the reaction system was detected by ADP-Glo reagent (V6930, Promega) according to the manufacturer’s protocol in 384-well. Luminescence was read by spark (TECAN), an integration time of 1 s per well. And the data were analyzed by GraphPad Prism 7.0.

FHIT (H96N) = target: T2, FHIT (H96N) (Homo sapiens, UniProt P49789, H96N); assay: Fluorescence polarization assay, FHIT H96N-ApppBODIPY binding inhibition; conditions: 5 µM FHIT (H96N), 1 µM ApppBODIPY
T2 construct: GST (N, cleaved yes); made in house; host or cells: E. coli BL21 (DE3)
Protocol: The binding of FHIT (H96N) to fluorescein-labeled substrates ApppBODIPY was analyzed by fluorescence polarization assay in 384-well format for dose–response curve studies using spark instrument (TECAN) according to the protocol reported before. And 5 µM FHIT (H96N) protein was incubated with 1 µM fluorescein-labeled substrates in buffer A (25 mM Tris–HCl, pH 7.5, 5 mM MgCl2 and 2 mM DTT) with series diluted inhibitors as indicated. Each sample was allowed to equilibrate in the solution for 30 min. After 30 min, the steady-state fluorescence anisotropy (mP) was measured. A second reading was taken after 10 min, to ensure that the mixture was well-equilibrated and stable. Less than 5% change was observed between 30 and 40 min measurements. The IC50 value was determined by fitting the binding curves using GraphPad Prism 7.0.

T1 sequence (P49789 whole entry): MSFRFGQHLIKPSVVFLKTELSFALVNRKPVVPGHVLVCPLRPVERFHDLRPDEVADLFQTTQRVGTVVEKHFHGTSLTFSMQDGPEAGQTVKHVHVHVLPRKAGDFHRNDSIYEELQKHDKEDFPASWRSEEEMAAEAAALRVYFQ
T2 sequence (P49789 whole entry H96N): as the sequence (P49789 whole entry) above, with H96N counted along it

## Cc1coc2c1C(=O)C(=O)c1c-2ccc2c(C)cccc12 [TanI, tanshinone I]
FHIT [1]
  Kd: 466 ± 60 nM
FHIT [2]
  IC50: 4000 to 6000 nM
WT HCT116 cells; 10 µM
  apoptosis: 31.66%
FHIT KO HCT116 cells; 10 µM
  apoptosis: 12.7%

## C[C@H]1COC2=C1C(=O)C(=O)c1c2ccc2c1CCCC2(C)C [CST, Cryptotanshinone]
FHIT [1]
  Kd: 123 ± 31.7 nM
FHIT [2]
  IC50: 4000 to 6000 nM

## CC[C@@]1(O)C(=O)OCc2c1cc1n(c2=O)Cc2cc3ccccc3nc2-1 [CPT, camptothecin]
WT HCT116 cells; 1 µM
  apoptosis: 24.9%
FHIT KO HCT116 cells; 1 µM
  apoptosis: 5.3%

## Cc1coc2c1C(=O)C(=O)c1c-2ccc2c1CCCC2(C)C [TSA, Tanshinone IIA]
FHIT [1]
  Kd: 112 ± 27.3 nM
FHIT [2]
  IC50: 4000 to 6000 nM
HCT116 cells [3]
  growth of HCT116 cells (CCK8): significantly inhibits the growth
HCT116 cells [4]
  colony formation of HCT116 cells: clearly abolished the colony formation
WT HCT116 cells; 5 µM, 24 h
  apoptosis rate: 13.5%
FHIT KO HCT116 cells; FHIT KO cells, 5 µM, 24 h
  apoptosis rate: 4.9%

## Cc1ccc(C(=O)Nc2ccc(S(=O)(=O)O)c3cc(S(=O)(=O)O)cc(S(=O)(=O)O)c23)cc1NC(=O)c1cccc(NC(=O)Nc2cccc(C(=O)Nc3cc(C(=O)Nc4ccc(S(=O)(=O)O)c5cc(S(=O)(=O)O)cc(S(=O)(=O)O)c45)ccc3C)c2)c1 [suramin]
FHIT [5]
  IC50: 260 ± 80 nM
FHIT (H96N)
  IC50: 2600 ± 44 nM
